According to the CheMixHub viscosity set:
Where “and” joins values, the source holds several entries; their conditions need not be identical. Identical values can stand only once. ± gives the uncertainty stated by the source.

With `CC(=O)O.NCCO` the viscosity (293.15 K, 101 kPa) was 5032 ± 630 mPa·s, the viscosity (293.15 K, 101.3 kPa) was 3423 ± 230 mPa·s and the viscosity (298.15 K, 101 kPa) was 3167 ± 420 mPa·s. The viscosity (298.15 K, 101.3 kPa) was 2300 ± 370 mPa·s and 2300 mPa·s and 2267 ± 150 mPa·s, the viscosity (303.15 K, 101 kPa) was 2044 ± 250 mPa·s and the viscosity (303.15 K, 101.3 kPa) was 1502 ± 92 mPa·s. The viscosity (308.15 K, 101 kPa) was 1369 ± 160 mPa·s, the viscosity (308.15 K, 101.3 kPa) was 1021 ± 59 mPa·s and the viscosity (313.15 K, 101 kPa) was 947.7 ± 100 mPa·s. It also gave a viscosity (313.15 K, 101.3 kPa) of 711.1 ± 39 mPa·s, a viscosity (318.15 K, 101 kPa) of 661 ± 67 mPa·s and a viscosity (318.15 K, 101.3 kPa) of 506.5 ± 27 mPa·s. For the same compound, the viscosity (323.15 K, 101 kPa) was 477.5 ± 45 mPa·s and the viscosity (323.15 K, 101.3 kPa) was 368.3 ± 19 mPa·s.

In the case of `CC/C=C\CCO`, the viscosity (293.15 K, 100 kPa) is reported as 3.336 ± 0.039 mPa·s, the viscosity (298.15 K, 100 kPa) is reported as 2.921 ± 0.034 mPa·s and the viscosity (303.15 K, 100 kPa) is reported as 2.566 ± 0.03 mPa·s. It also gave a viscosity (308.15 K, 100 kPa) of 2.266 ± 0.027 mPa·s, a viscosity (313.15 K, 100 kPa) of 2.012 ± 0.024 mPa·s and a viscosity (318.15 K, 100 kPa) of 1.807 ± 0.022 mPa·s.

With `CCCCC` the viscosity (293.15 K, 100 kPa) was 0.222 ± 0.003 mPa·s, the viscosity (298.15 K, 100 kPa) was 0.212 ± 0.003 mPa·s and the viscosity (298.15 K, 101 kPa) was 0.2121 ± 0.01 mPa·s and 0.214 ± 0.008 mPa·s. For the same compound, the viscosity (298.15 K, 101.33 kPa) was 0.223 ± 0.0042 mPa·s and 0.223 ± 0.008 mPa·s and 0.237 ± 0.004 mPa·s.

For `CCCCC(=O)OCC`, the viscosity (293.15 K, 101.33 kPa) was 0.846 ± 0.019 mPa·s, the viscosity (303.15 K, 101.33 kPa) was 0.694 ± 0.017 mPa·s and the viscosity (313.15 K, 101.33 kPa) was 0.629 ± 0.016 mPa·s.

For `CCCCCCCCCC`, the viscosity (293.15 K, 100 kPa) was 0.928 ± 0.01 mPa·s and 0.918 ± 0.02 mPa·s, the viscosity (293.15 K, 101.32 kPa) was 0.91 ± 0.013 mPa·s and the viscosity (293.15 K, 101.33 kPa) was 0.91 ± 0.012 mPa·s. For the same compound, the viscosity (298.15 K, 100 kPa) was 0.853 ± 0.019 mPa·s and 0.874 ± 0.031 mPa·s, the viscosity (298.15 K, 103 kPa) was 0.842 ± 0.04 mPa·s and the viscosity (303.15 K, 100 kPa) was 0.807 ± 0.01 mPa·s and 0.795 ± 0.017 mPa·s (2×) and 0.791 ± 0.025 mPa·s. For the same compound, the viscosity (303.15 K, 101 kPa) was 0.802 ± 0.008 mPa·s and 0.803 ± 0.014 mPa·s, the viscosity (303.15 K, 101.32 kPa) was 0.785 ± 0.011 mPa·s and the viscosity (303.15 K, 101.33 kPa) was 0.774 ± 0.02 mPa·s and 0.793 ± 0.01 mPa·s and 0.755 ± 0.015 mPa·s. The viscosity (308.15 K, 100 kPa) was 0.745 ± 0.016 mPa·s and 0.744 ± 0.016 mPa·s, the viscosity (308.15 K, 103 kPa) was 0.727 ± 0.04 mPa·s and the viscosity (313.15 K, 100 kPa) was 0.691 ± 0.069 mPa·s and 0.7 ± 0.015 mPa·s (2×) and 0.699 ± 0.027 mPa·s. For the same compound, the viscosity (313.15 K, 101 kPa) was 0.6883 ± 0.0088 mPa·s, the viscosity (313.15 K, 101.33 kPa) was 0.673 ± 0.018 mPa·s and the viscosity (318.15 K, 100 kPa) was 0.66 ± 0.014 mPa·s and 0.659 ± 0.014 mPa·s. The viscosity (318.15 K, 101 kPa) was 0.66 ± 0.04 mPa·s and 0.6182 ± 0.0095 mPa·s and 0.6466 ± 0.0087 mPa·s, the viscosity (318.15 K, 101.33 kPa) was 0.619 ± 0.008 mPa·s and the viscosity (318.15 K, 103 kPa) was 0.64 ± 0.04 mPa·s. It also gave a viscosity (323.15 K, 100 kPa) of 0.624 ± 0.014 mPa·s and a viscosity (323.15 K, 101 kPa) of 0.6085 ± 0.0085 mPa·s.

Work on `CCCCCCCO` yielded a viscosity (293.15 K, 100 kPa) of 7.018 ± 0.089 mPa·s, a viscosity (293.15 K, 101.3 kPa) of 7.079 ± 0.15 mPa·s and a viscosity (298 K, 100 kPa) of 5.956 ± 0.065 mPa·s. For the same compound, the viscosity (298.15 K, 101.3 kPa) was 5.758 ± 0.067 mPa·s, the viscosity (298.15 K, 101.33 kPa) was 5.69 ± 0.24 mPa·s and 5.652 ± 0.063 mPa·s and the viscosity (303 K, 100 kPa) was 4.778 ± 0.96 mPa·s. The viscosity (303.15 K, 100 kPa) was 5.014 ± 0.064 mPa·s, the viscosity (303.15 K, 101 kPa) was 4.996 ± 0.42 mPa·s and 4.783 ± 0.96 mPa·s and the viscosity (303.15 K, 101.3 kPa) was 4.814 ± 0.058 mPa·s and 4.785 ± 0.053 mPa·s. The viscosity (308.15 K, 100 kPa) was 4.275 ± 0.054 mPa·s, the viscosity (308.15 K, 101 kPa) was 4.176 ± 0.36 mPa·s and 4.691 ± 0.94 mPa·s and 4.069 ± 0.037 mPa·s and the viscosity (308.15 K, 101.3 kPa) was 4.2 ± 0.025 mPa·s and 4.051 ± 0.049 mPa·s and 4.691 ± 0.11 mPa·s. For the same compound, the viscosity (308.15 K, 101.33 kPa) was 4.002 ± 0.18 mPa·s and 4.045 ± 0.047 mPa·s and 4.175 ± 0.18 mPa·s, the viscosity (313 K, 100 kPa) was 3.228 ± 0.65 mPa·s and the viscosity (313 K, 101 kPa) was 3.55 ± 0.093 mPa·s. The viscosity (313.15 K, 100 kPa) was 3.656 ± 0.046 mPa·s and 3.702 ± 0.11 mPa·s and 3.735 ± 0.1 mPa·s, the viscosity (313.15 K, 101 kPa) was 3.723 ± 0.17 mPa·s and 4.598 ± 0.92 mPa·s and the viscosity (313.15 K, 101.3 kPa) was 3.579 ± 0.041 mPa·s. It also gave a viscosity (318.15 K, 100 kPa) of 3.407 ± 0.092 mPa·s, a viscosity (318.15 K, 101.3 kPa) of 3.447 ± 0.081 mPa·s and a viscosity (323 K, 100 kPa) of 2.529 ± 0.51 mPa·s. For the same compound, the viscosity (323.15 K, 100 kPa) was 2.741 ± 0.034 mPa·s and 2.8 ± 0.28 mPa·s and the viscosity (323.15 K, 101.33 kPa) was 2.741 ± 0.064 mPa·s and 2.741 ± 0.021 mPa·s.
